This is an account of results in US9643946B2, “Tricyclic compound and use thereof” (SK CHEMICALS CO., LTD., priority 2013, dated 2017).

One assay deals with male ZFDM rats. Briefly: Hypoglycemic rate after oral glucose loading in rats. In kind it is in vivo, rat. The conditions noted are these: oral 0.1 to 30 mg/kg one hour before glucose loading (1.5 g/kg), blood glucose AUC 0 to 120 minutes versus control. How it is done:
Measurement of Hypoglycemic Rate in Rats
An effect of the compound according to one exemplary embodiment of the present invention on blood glucose inhibition after glucose loading was examined in male ZFDM rats (Japan SLC, Inc.).
Specifically, male ZFDM rats (7 week-old) pre-fed for a week were fasted overnight, and used as an animal to be tested. A test compound was prepared into a 0.5% methylcellulose suspension, which was orally administered to rats at a dose of 0.1 to 30 mg/kg before an hour of glucose loading (1.5 g/kg). As the control, 0.5% methylcellulose was administered. After the glucose administration, blood was drawn from the rats' tails after 0, 15, 30, 60 and 120 minutes to measure a blood glucose level. The area under the curve (AUC) for compound treatment was calculated using a blood glucose change profile from t=0 to 120 minutes, and a hypoglycemic rate (%) for the control was calculated.

In a further assay the target is human GPR40 protein (Homo sapiens, UniProt O14842). Description: GPR40 agonist binding inhibition (displacement of 3H-labeled propanoic acid radioligand). The conditions noted are these: membrane protein including human GPR40, 3H-labeled propanoic acid radioligand, 25° C., 2 hours; read-out: Half maximal inhibitory concentration. How it is done: Measurement of 50% Inhibitory Concentration (ID50) for GPR40 Agonist Binding
human GPR40 protein, sequence (O14842 whole entry): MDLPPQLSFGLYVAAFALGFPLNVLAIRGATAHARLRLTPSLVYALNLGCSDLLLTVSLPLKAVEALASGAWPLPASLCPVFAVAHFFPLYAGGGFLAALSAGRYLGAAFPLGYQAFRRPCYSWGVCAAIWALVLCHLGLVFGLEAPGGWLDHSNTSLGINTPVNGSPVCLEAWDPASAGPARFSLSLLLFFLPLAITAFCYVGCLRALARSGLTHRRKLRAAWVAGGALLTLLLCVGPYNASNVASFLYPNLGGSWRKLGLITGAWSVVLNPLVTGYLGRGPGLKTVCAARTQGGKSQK
To examine the efficacy of the compounds according to one exemplary embodiment of the present invention in modulating GPR40, the half maximal inhibitory concentrations (IC50) of the compounds according to one exemplary embodiment of the present invention were measured by Microbeta2™ (PerkinElmer Inc.) using a change in radiation dose emitted from ^3H-labeled propanoic acid (i.e., 3-(4-((2,6′-dimethyl-6-((4-(^3H))-phenylmethoxy)biphenyl-3-yl)methoxy)phenyl)propanoic acid), which is a radioactive isotope which binds to a human GPR40 protein, as an indicator.
Specifically, a test compound was prepared by serial dilution with DMSO, and 100 μL of a binding buffer (including 25 mM HEPES (pH 7.5), 5 mM MgCl2, 100 mM NaCl, and 0.1% free fatty acid BSA; Sigma-Aldrich Corp.) was put into each well of a 96-well transparent plate. Thereafter, each of the diluted compound, propanoic acid which was prepared by dissolving propanoic acid in DMSO to a concentration of 500 mM and not labeled with a radioactive isotope, and DMSO was dispensed at 5 μL per well. ^3H-labeled propanoic acid was dissolved in a binding buffer at a concentration of 1 nM and dispensed at 50 μL into the corresponding wells, and a membrane protein including a human GPR40 protein was dissolved in a binding buffer at a concentration of 20 μg/well and dispensed at 100 μL, into the corresponding wells.
After the dispensation was completed, the plate was incubated at a temperature of 25° C. and a rotary speed of 230 rpm for 2 hours while shaking. A human GPR40 complex was transferred to Filtermat A (PerkinElmer Inc.) using a cell harvester (PerkinElmer Inc.), washed 10 times with 50 mM tris-HCl, dried, and then scintillated using Meltilex (PerkinElmer Inc.). Thereafter, an emitted radiation dose was measured using Microbeta2™. The radiation doses emitted from the complex in the well containing 10 mM unlabeled propanoic acid and the complex in the well containing DMSO alone were set as 0% and 100%, respectively. Thus, a change curve for each of the radiation doses was plotted to calculate the half maximal inhibitory concentration of the test compound.
(Loss of bound radioactivity is the signal in a displacement assay; it reports binding, not function.)

The structures appear in SMILES notation.

`CS(=O)(=O)CCCOc1ccc2c(c1)CCCc1ccc(CNc3ccc([C@H]4C[C@@H]4C(=O)O)cc3)cc1-2` [Example 6, (1S,2S)-2-(4-(((9-(3-(methylsulfonyl)propoxy)-6,7-dihydro-5H-dibenzo[a,c][7]annulen-2-yl)methyl)amino)phenyl)cyclopropanecarboxylic acid]: in the assay on male ZFDM rats, the Hypoglycemic rate amounted to 18.0%. The IC50 at human GPR40 protein stood at 116 nM.
In the case of `O=C(O)[C@H]1C[C@@H]1c1ccc(NCc2ccc3c(c2)-c2ccc(OCC4CCS(=O)(=O)CC4)cc2CCC3)cc1` [Example 78, (1S,2S)-2-(4-(((9-((1,1-dioxidotetrahydro-2H-thiopyran-4-yl)methoxy)-6,7-dihydro-5H-dibenzo[a,c][7]annulen-2-yl)methyl)amino)phenyl)cyclopropanecarboxylic acid], the Hypoglycemic rate with male ZFDM rats is reported as 27.4%.
